Experimental data reported in US11179383B2 (Gilead Sciences, Inc., priority 2018, dated 2021).

What follows are compounds tested against T1, α4β7 integrin (Homo sapiens, UniProt P13612+P26010) (assay: α4β7 Integrin Cell Capture Assay). Conditions: capture of α4β7 integrin expressing RPMI8866 cells on recombinant MadCAM-1 extracellular domain-coated plate; DMEM+0.5% FBS+0.5 mM MnCl2; read-out: EC50 α4β7.
T1 construct: monitoring the capture of α4β7 integrin expressing cells on a recombinant MadCAM-1 extracellular domain-coated plate; endogenous in cells; host or cells: RPMI8866 cells
T1 sequence (P13612 34-1032): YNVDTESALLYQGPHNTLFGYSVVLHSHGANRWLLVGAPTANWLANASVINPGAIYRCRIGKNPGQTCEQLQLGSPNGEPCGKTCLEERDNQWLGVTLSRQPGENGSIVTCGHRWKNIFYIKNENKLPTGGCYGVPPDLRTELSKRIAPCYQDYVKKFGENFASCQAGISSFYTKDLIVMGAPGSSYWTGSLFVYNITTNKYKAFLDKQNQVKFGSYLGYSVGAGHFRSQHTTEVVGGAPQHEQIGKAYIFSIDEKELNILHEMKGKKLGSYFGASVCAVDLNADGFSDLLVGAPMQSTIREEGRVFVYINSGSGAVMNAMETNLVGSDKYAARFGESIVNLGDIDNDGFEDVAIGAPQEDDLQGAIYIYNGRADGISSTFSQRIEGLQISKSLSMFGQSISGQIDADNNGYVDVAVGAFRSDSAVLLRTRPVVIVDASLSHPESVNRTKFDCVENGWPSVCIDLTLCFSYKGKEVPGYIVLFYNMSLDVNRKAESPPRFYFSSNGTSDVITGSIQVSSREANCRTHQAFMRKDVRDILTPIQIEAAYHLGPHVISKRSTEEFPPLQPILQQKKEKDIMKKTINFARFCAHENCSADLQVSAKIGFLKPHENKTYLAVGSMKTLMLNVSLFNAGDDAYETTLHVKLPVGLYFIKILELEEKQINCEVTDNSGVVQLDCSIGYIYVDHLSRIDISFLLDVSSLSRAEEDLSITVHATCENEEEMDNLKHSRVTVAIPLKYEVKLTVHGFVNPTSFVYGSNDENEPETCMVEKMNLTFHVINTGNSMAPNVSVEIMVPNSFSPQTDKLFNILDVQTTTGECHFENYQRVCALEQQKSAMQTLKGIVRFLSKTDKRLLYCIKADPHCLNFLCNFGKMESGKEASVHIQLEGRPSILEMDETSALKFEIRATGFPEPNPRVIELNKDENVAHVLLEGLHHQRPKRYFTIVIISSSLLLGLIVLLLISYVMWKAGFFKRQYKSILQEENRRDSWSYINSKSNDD
T1 sequence (P26010 20-798): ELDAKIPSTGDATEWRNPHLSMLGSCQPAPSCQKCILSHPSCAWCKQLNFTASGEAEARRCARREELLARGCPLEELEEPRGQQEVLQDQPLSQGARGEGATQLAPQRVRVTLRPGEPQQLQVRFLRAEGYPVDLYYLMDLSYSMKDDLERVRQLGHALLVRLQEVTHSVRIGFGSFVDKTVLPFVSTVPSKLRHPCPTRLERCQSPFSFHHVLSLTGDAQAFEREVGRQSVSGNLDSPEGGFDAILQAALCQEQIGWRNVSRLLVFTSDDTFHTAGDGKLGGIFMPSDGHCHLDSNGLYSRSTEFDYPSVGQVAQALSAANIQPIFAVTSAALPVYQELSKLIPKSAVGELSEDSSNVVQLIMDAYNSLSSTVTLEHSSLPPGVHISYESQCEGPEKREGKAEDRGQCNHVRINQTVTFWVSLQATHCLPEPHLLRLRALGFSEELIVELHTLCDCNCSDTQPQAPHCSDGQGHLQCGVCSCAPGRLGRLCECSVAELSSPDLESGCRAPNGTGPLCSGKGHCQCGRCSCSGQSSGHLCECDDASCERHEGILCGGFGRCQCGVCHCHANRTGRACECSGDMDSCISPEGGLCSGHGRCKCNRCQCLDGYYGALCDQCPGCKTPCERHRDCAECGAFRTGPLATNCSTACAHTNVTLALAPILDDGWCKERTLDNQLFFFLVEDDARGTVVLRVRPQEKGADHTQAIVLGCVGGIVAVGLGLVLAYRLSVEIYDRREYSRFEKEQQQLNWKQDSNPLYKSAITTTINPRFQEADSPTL
Assay type: cell-based
In short: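 RPMI8866 cells in DMEM + 0.5% FBS + 0.5 mM MnCl2 preincubated with compound 1 h at 37 °C, then allowed to bind 30 min at 37 °C to plates coated with MAdCAM-1 extracellular domain (1.0 μg/mL). Cells fixed with glutaraldehyde, Hoechst-stained, imaged and bound cells counted; EC50 from cell count versus concentration.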
Compound `Cn1c(=O)c(-c2ccc(C[C@H](NC(=O)c3c(F)cc(N4CCOC[C@@H]4C(F)(F)F)cc3F)C(=O)O)c3ccccc23)cc2cnccc21` [Example 140, (S)-2-(2,6-difluoro-4-((R)-3-(trifluoromethyl)morpholino)benzamido)-3-(4-(1-methyl-2-oxo-1,2-dihydro-1,6-naphthyridin-3-yl)naphthalen-1-yl)propanoic acid] has an EC50 of 0.0001 µM.
Work on `CCOCc1cc(OC)c(-c2ccc(C[C@H](NC(=O)c3c(F)cc(NS(=O)(=O)c4ccc(-c5ccnc(F)c5)cc4)cc3F)C(=O)O)c3nccnc23)c(OC)c1` [Example 155, (S)-2-(2,6-difluoro-4-((4-(2-fluoropyridin-4-yl)phenyl)sulfonamido)benzamido)-3-(8-(4-(ethoxymethyl)-2,6-dimethoxyphenyl)quinoxalin-5-yl)propanoic acid] yielded an EC50 of 0.0016 µM.
With `Cn1c(=O)c(-c2ccc(C[C@H](NC(=O)c3c(Cl)cccc3Cl)C(=O)O)c3ncccc23)cc2ccccc21` [Example 21, (S)-2-(2,6-dichlorobenzamido)-3-(1-methyl-2-oxo-1,2-dihydro-[3,5′-biquinolin]-8′-yl)propanoic acid] the EC50 was 0.0058 µM.
`O=C(N[C@@H](Cc1ccc(-c2c(Cl)cc(F)cc2Cl)c2nccnc12)C(=O)O)c1c(F)cccc1F` [Example 156, (S)-3-(8-(2,6-dichloro-4-fluorophenyl)quinoxalin-5-yl)-2-(2,6-difluorobenzamido)propanoic acid] gave an EC50 of 0.135 µM.
`O=C(N[C@@H](Cc1ccc(-c2c(Cl)cc(F)cc2Cl)c2ccccc12)C(=O)O)c1c(F)cccc1F` [Example 106, (S)-3-(4-(2,6-dichloro-4-fluorophenyl)naphthalen-1-yl)-2-(2,6-difluorobenzamido)propanoic acid] showed an EC50 of 0.196 µM.
`Cc1c(-c2ccc(C[C@H](NC(=O)c3c(F)cc(N4CCOC[C@@H]4C(F)(F)F)cc3F)C(=O)O)c3ccccc23)c(=O)n(C)c(=O)n1C` [Example 138, (S)-2-(2,6-difluoro-4-((R)-3-(trifluoromethyl)morpholino)benzamido)-3-(4-(1,3,6-trimethyl-2,4-dioxo-1,2,3,4-tetrahydropyrimidin-5-yl)naphthalen-1-yl)propanoic acid] gave an EC50 of 0.0003 µM.
For `Cc1ccnc2c(C[C@H](NC(=O)c3c(Cl)cccc3Cl)C(=O)O)ccc(-c3cc4ccccc4n(C)c3=O)c12` [Example 100, (S)-2-(2,6-dichlorobenzamido)-3-(1,4′-dimethyl-2-oxo-1,2-dihydro-[3,5′-biquinolin]-8′-yl)propanoic acid], the EC50 was 0.0222 µM.
Compound `Cn1cc(-c2ccc(C[C@H](NC(=O)c3c(F)cccc3F)C(=O)O)c3ncccc23)c(=O)n(C)c1=O` [Example 80, (S)-2-(2,6-difluorobenzamido)-3-(5-(1,3-dimethyl-2,4-dioxo-1,2,3,4-tetrahydropyrimidin-5-yl)quinolin-8-yl)propanoic acid] has an EC50 of 0.017 µM.
For `CCOCc1cc(OC)c(-c2ccc(C[C@H](NC(=O)c3c(F)cc(NS(=O)(=O)c4ccc(-c5ccnc(F)c5)cc4)cc3F)C(=O)O)c3ccncc23)c(OC)c1` (single isomer, unassigned) [Example 161], the EC50 was 0.0005 µM.
`COc1cc(F)c(F)cc1-c1ccc(C[C@H](NC(=O)c2c(Cl)cccc2Cl)C(=O)O)c2nccc(Cl)c12` (single isomer, unassigned) [Example 96] showed an EC50 of 0.572 µM.
`O=C(N[C@@H](Cc1ccc(-c2cc(F)c(F)cc2OC2CC2)c2cccnc12)C(=O)O)c1c(F)cccc1F` [Example 83, (S)-3-(5-(2-cyclopropoxy-4,5-difluorophenyl)quinolin-8-yl)-2-(2,6-difluorobenzamido)propanoic acid] showed an EC50 of 0.109 µM.
`O=C(N[C@@H](Cc1ccc(-c2c(Cl)cc(F)cc2Cl)c2nccnc12)C(=O)O)c1c(Cl)cccc1Cl` [Example 157, (S)-3-(8-(2,6-dichloro-4-fluorophenyl)quinoxalin-5-yl)-2-(2,6-dichlorobenzamido)propanoic acid] gave an EC50 of 0.161 µM.
For `COc1cc(F)c(F)cc1-c1ccc(C[C@H](NC(=O)c2c(F)cccc2F)C(=O)O)c2ncccc12` [Example 79, (S)-3-(5-(4,5-difluoro-2-methoxyphenyl)quinolin-8-yl)-2-(2,6-difluorobenzamido) propanoic acid], the EC50 was 0.0457 µM.
`COc1cc(F)c(F)cc1-c1ccc(C[C@H](NC(=O)c2c(Cl)cccc2Cl)C(=O)O)c2nccc(C)c12` (single isomer, unassigned) [Example 98] showed an EC50 of 0.469 µM.
`Cn1c(=O)c(-c2ccc(C[C@H](NC(=O)c3c(Cl)cccc3Cl)C(=O)O)c3ccccc23)c(C(F)(F)F)c2ccccc21` [Example 121, (S)-2-(2,6-dichlorobenzamido)-3-(4-(1-methyl-2-oxo-4-(trifluoromethyl)-1,2-dihydroquinolin-3-yl)naphthalen-1-yl)propanoic acid] showed an EC50 of 0.0039 µM.
Work on `COc1cccc(Cl)c1-c1ccc(C[C@H](NC(=O)c2c(Cl)cccc2Cl)C(=O)O)c2ncccc12` [Example 37, (2S)-3-(5-(2-chloro-6-methoxyphenyl)quinolin-8-yl)-2-(2,6-dichlorobenzamido) propanoic acid] yielded an EC50 of 0.0656 µM.
Compound `Cc1c(-c2ccc(C[C@H](NC(=O)c3c(Cl)cccc3Cl)C(=O)O)c3ccccc23)c(=O)n(C)c2ccccc12` (single isomer, unassigned) [Example 118] has an EC50 of 0.0025 µM.
In the case of `O=C(N[C@@H](Cc1ccc(-c2cccc3c2OCCC3)c2ccccc12)C(=O)O)c1c(F)cccc1F` [Example 112, (S)-3-(4-(chroman-8-yl)naphthalen-1-yl)-2-(2,6-difluorobenzamido) propanoic acid], the EC50 is reported as 0.0533 µM.
Work on `O=C(N[C@@H](Cc1ccc(-c2ccc(F)cc2Cl)c2c(-c3ccc(F)cc3Cl)ccnc12)C(=O)O)c1c(F)cccc1F` [Example 91, (S)-3-(4,5-bis(2-chloro-4-fluorophenyl)quinolin-8-yl)-2-(2,6-difluorobenzamido)propanoic acid] yielded an EC50 of 0.686 µM.
Work on `Cc1cc(C(F)(F)F)c(-c2ccc(C[C@H](NC(=O)c3c(F)cc(N4CCOC[C@@H]4C(F)(F)F)cc3F)C(=O)O)c3ncccc23)c(=O)n1C` (single isomer, unassigned) [Example 86] yielded an EC50 of 0.0003 µM.
With `O=C(N[C@@H](Cc1ccc(-c2nccc(C(F)(F)F)c2Cl)c2cccnc12)C(=O)O)c1c(Cl)cccc1Cl` [Example 51, (S)-3-(5-(3-chloro-4-(trifluoromethyl)pyridin-2-yl)quinolin-8-yl)-2-(2,6-dichlorobenzamido)propanoic acid] the EC50 was 0.0451 µM.
`Cc1c(-c2ccc(C[C@H](NC(=O)c3c(Cl)cccc3Cl)C(=O)O)c3ncccc23)c(C(F)(F)F)nn1C` [Example 18, (S)-2-(2,6-dichlorobenzamido)-3-(5-(1,5-dimethyl-3-(trifluoromethyl)-1H-pyrazol-4-yl)quinolin-8-yl)propanoic acid] gave an EC50 of 0.416 µM.
For `CS(=O)(=O)Nc1cc(F)c(C(=O)N[C@@H](Cc2ccc(-c3c(Cl)cc(F)cc3Cl)c3cccnc23)C(=O)O)c(F)c1` [Example 4, (S)-3-(5-(2,6-dichloro-4-fluorophenyl)quinolin-8-yl)-2-(2,6-difluoro-4-(methylsulfonamido)benzamido)propanoic acid], the EC50 was 0.026 µM.
